Measured values reported in patent US4393047A, “Antibiotic cytophagin and a process for producing the same” (Microbiochemical Research Foundation, priority 1981, dated 1983).

Assays:
[1] = Solubility in various solvents; assay type: physicochemical
[2] = system: Bacillus subtilis NRRL B-558; test: Minimum growth inhibitory concentration, agar dilution method; assay type: cell-based; settings: pH 7
Source text: (§1) **Determined by agar dilution method using a bouilon medium (pH:7).

[3] = system: Staphylococcus aureus FDA 209P; test: as above; assay type: cell-based; settings: bouillon medium pH 7
Source text: as §1

[4] = system: Pseudomonas aeruginosa A 3; test: as above; assay type: cell-based; settings: pH 7
Source text: as §1

[5] = system: Bacillus subtilis PCI 219; test: as above; assay type: cell-based; settings: pH 7
Source text: as §1

[6] = system: Micrococcus lysodeikticus IFO 3333; test: as above; assay type: cell-based; settings: pH 7
Source text: as §1

[7] = system: Mycobacterium smegmatis ATCC 607; test: as above; assay type: cell-based; settings: pH 7
Source text: as §1

[8] = system: Staphylococcus sp M-XX-0105; test: as above; assay type: cell-based; settings: Staphylococcus sp M-XX-0105, resistant to amikacin, tobramycin and DKB, pH 7
Source text: as §1

[9] = system: Escherichia coli K-12; test: as above; assay type: cell-based; settings: pH 7
Source text: as §1

[10] = system: Candida albicans 3147; test: as above; assay type: cell-based; settings: pH 7
Source text: as §1

[11] = system: Staphylococcus aureus MS 8800; test: as above; assay type: cell-based; settings: Staphylococcus aureus MS 8800, resistant to penicillin, tetracyclin, streptomycin and erythromycin, pH 7
Source text: as §1

[12] = system: Sarcina lutea PCI 1001; test: as above; assay type: cell-based; settings: pH 7
Source text: as §1

[13] = system: mouse; test: Acute toxicity in mouse; assay type: in vivo; settings: ip., 200 mg/kg in DMSO/water, two groups of 3
Experimental: The acute toxicity of cytophagin was determined by using mouse as test animals.

[14] = system: various Gram-positive bacteria; test: Activity against the growth of Gram-positive bacteria (Table 1); assay type: cell-based; settings: qualitative, from Table 1
Source text: as §1

Q: What does the source list for cytophagin?
A: Solubility ([1]; acetic acid): Readily soluble; Solubility ([1]; acetone): hardly soluble; Solubility ([1]; chloroform): hardly soluble; Solubility ([1]; dimethylsulfoxide): Readily soluble; Solubility ([1]; ethanol): substantially soluble; Solubility ([1]; ethyl acetate): hardly soluble; Solubility ([1]; ethyl ether): hardly soluble; Solubility ([1]; methanol): substantially soluble; Solubility ([1]; water): hardly soluble; MIC [2]: 1.56 µg/mL; MIC [3]: 1.56 µg/mL; MIC [4]: > 100 µg/mL; MIC [5]: 1.56 µg/mL; MIC [6]: 0.1 µg/mL; MIC [7]: > 100 µg/mL; MIC [8]: 2.5 µg/mL; MIC [9]: > 100 µg/mL; MIC [10]: 50 µg/mL; MIC [11]: 1.56 µg/mL; MIC [12]: 0.1 µg/mL; acute toxicity (survival) [13]: All of them (two groups, each consisting of 3 mouse) survived; activity against the growth of various Gram-positive bacteria [14]: strongly active
